Measured values published in patent US6737383B1, “Herbicidal oxadiazolidines” (priority 1999, dated 2004).

Key:
[1] = system: winter barley; assay: Test E winter barley; assay type: in vivo, Hordeum vulgare; conditions: Postemergence
Procedure, shortened: (§1)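 Greenhouse test: compounds in non-phytotoxic solvent with surfactant; for postemergence, sprayed on plants at 1- to 4-leaf stage grown in 60:40 sandy loam/potting mix. Injury rated visually against untreated controls after about 21 to 28 days.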

[2] = system: wild mustard; assay: Test E wild mustard; assay type: in vivo, Sinapis arvensis; conditions: Preemergence
[3] = system: kochia; assay: Test E kochia; assay type: in vivo, Kochia scoparia; conditions: Postemergence
Procedure, shortened: as §1

[4] = system: wild oat; assay: Test E wild oat; assay type: in vivo, Avena fatua; conditions: Postemergence
Protocol: (§2) Compounds evaluated in this test were formulated in a non-phytotoxic solvent mixture which included a surfactant and applied to plants that were in the 1- to 4-leaf stage (postemergence application). A mixture of sandy loam soil and greenhouse potting mix in a 60:40 ratio was used for the postemergence test.
(§3) Plantings of these crops and weed species were adjusted to produce plants of appropriate size for the postemergence test. All plant species were grown using normal greenhouse practices. Crop and weed species include annual bluegrass (Poa annua), blackgrass (Alopecurus myosuroides), black nightshade (Solanum nigra), chickweed (Stellaria media), common poppy (Papaver rhoeas), deadnettle (Lamium amplexicaule), downy brome (Bromus tectorum), field violet (Viola arvensis), galium (Galium aparine), green foxtail (Setaria viridis), Italian ryegrass (Lolium multiflorum), jointed goatgrass (Aegilops cylindrica), kochia (Kochia scoparia), lambsquarters (Chenopodium album), littleseed canarygrass (Phalaris minor), rape (Brassica napus), redroot pigweed (Amaranthus retroflexus), Russian thistle (Salsola kali), scentless chamomile (Matricaria inodora), spring barley (Hordeum vulgare), sugar beet (Beta vulgaris), sunflower (Helianthus annuus), ivyleaf speedwell (Veronica hederaefolia), spring wheat (Triticum aestivum), winter wheat (Triticum aestivum), wild buckwheat (Polygonum convolvulus), wild mustard (Sinapis arvensis), wild oat (Avena fatua), windgrass (Apera spica-venti) and winter barley (Hordeum vulgare).
(§4) Treated plants and untreated controls were maintained in a greenhouse for approximately 21 to 28 days, after which all treated plants were compared to untreated controls and visually evaluated. […] A dash response (-) means no test result.

[5] = system: spring barley; assay: Test E spring barley; assay type: in vivo, Hordeum vulgare; conditions: Postemergence
Procedure, shortened: as §1

[6] = system: sunflower; assay: Test E sunflower; assay type: in vivo, Helianthus annuus; conditions: Preemergence
[7] = system: windgrass; assay: Test E windgrass; assay type: in vivo, Apera spica-venti; conditions: Preemergence
[8] = system: jointed goatgrass; assay: Test E jointed goatgrass; assay type: in vivo, Aegilops cylindrica; conditions: Postemergence
Procedure, shortened: as §1

[9] = system: downy brome; assay: Test E downy brome; assay type: in vivo, Bromus tectorum; conditions: Postemergence; for Plant response rating, Downy brome: 0 to 100 scale
Protocol: as §2, §3, §4

[10] = system: sugar beet; assay: Test E sugar beet; assay type: in vivo, Beta vulgaris; conditions: Postemergence
Protocol: as §2, §3, §4

[11] = system: annual bluegrass; assay: Test E annual bluegrass; assay type: in vivo, Poa annua; conditions: Postemergence
Procedure, shortened: as §1

[12] = system: kochia; assay: Test E kochia; assay type: in vivo, Kochia scoparia; conditions: Preemergence
[13] = system: deadnettle; assay: Test E deadnettle; assay type: in vivo, Lamium amplexicaule; conditions: Postemergence
Protocol: as §2, §3, §4

[14] = system: wild mustard; assay: Test E wild mustard; assay type: in vivo, Sinapis arvensis; conditions: Postemergence
Procedure, shortened: as §1

[15] = system: spring wheat; assay: Test E spring wheat; assay type: in vivo, Triticum aestivum; conditions: Postemergence
Procedure, shortened: as §1

[16] = system: Russian thistle; assay: Test E Russian thistle; assay type: in vivo, Salsola kali; conditions: Postemergence
Protocol: […] A mixture of sandy loam soil and greenhouse potting mix in a 60:40 ratio was used for the postemergence test.
as §3, §4

[17] = system: common poppy; assay: Test E common poppy; assay type: in vivo, Papaver rhoeas; conditions: Postemergence
Protocol: as §2, §3, §4

[18] = system: galium; assay: Test E galium; assay type: in vivo, Galium aparine; conditions: Postemergence
Procedure, shortened: as §1

[19] = Rate 250 g/ha, 0 to 100 scale (0 no effect, 100 complete control)
[20] = Rate 500 g/ha, 0 to 100 scale, 0 no effect, 100 complete control
[21] = Rate 125 g/ha, 0 to 100 scale (0 no effect, 100 complete control)
[22] = Rate 500 g/ha, 0 to 100 scale where 0 is no effect and 100 is complete control

With `CC(C)N(C(=O)n1oc(=O)n(C(C)C)c1=O)c1ccc(F)cc1F` [Compound 109] the “Plant response rating, Barley (winter)” value ([1]; Rate 125 g/ha, 0 to 100 scale) was 40, the “Plant response rating, Barley (winter)” value [1, 19] was 20 and the “Plant response rating, Barley (winter)” value [1, 20] was 10. The “Plant response rating, Wild mustard” value [2, 21] was 30, the “Plant response rating, Wild mustard” value ([2]; Rate 250 g/ha, 0 to 100 scale) was 85 and the “Plant response rating, Wild mustard” value [2, 22] was 80. For the same compound, the “Plant response rating, Kochia” value ([3]; Rate 125 g/ha, 0 to 100 scale) was 30, the “Plant response rating, Kochia” value [3, 19] was 30 and the “Plant response rating, Kochia” value [3, 20] was 50. For the same compound, the “Plant response rating, Wild oat” value ([4]; Rate 125 g/ha, 0 to 100 scale) was 0, the “Plant response rating, Wild oat” value [4, 19] was 0 and the “Plant response rating, Wild oat” value [4, 20] was 10. For the same compound, the “Plant response rating, Spring Barley” value ([5]; Rate 125 g/ha, 0 to 100 scale) was 30, the “Plant response rating, Spring Barley” value [5, 19] was 20 and the “Plant response rating, Spring Barley” value [5, 20] was 20. The “Plant response rating, Sunflower” value [6, 21] was 0, the “Plant response rating, Sunflower” value ([6]; Rate 250 g/ha, 0 to 100 scale) was 10 and the “Plant response rating, Sunflower” value [6, 22] was 5. The “Plant response rating, Windgrass” value [7, 21] was 100, the “Plant response rating, Windgrass” value [7, 22] was 100 and the “Plant response rating, Jointed goatgra” value ([8]; Rate 125 g/ha, 0 to 100 scale) was 10. The “Plant response rating, Jointed goatgra” value [8, 19] was 5, the “Plant response rating, Jointed goatgra” value [8, 20] was 30 and the “Plant response rating, Downy brome” value ([9]; Rate 125 g/ha) was 0. The “Plant response rating, Downy brortie” value [9, 19] was 0, the “Plant response rating, Downy brome” value ([9]; Rate 500 g/ha, 0 no effect, 100 complete control) was 0 and the “Plant response rating, Sugar beet” value ([10]; Rate 125 g/ha, 0 to 100 scale) was 30. The “Plant response rating, Sugar beet” value [10, 19] was 35, the “Plant response rating, Sugar beet” value [10, 20] was 30 and the “Plant response rating, Annual bluegras” value ([11]; Rate 125 g/ha, 0 to 100 scale) was 10. The “Plant response rating, Annual bluegras” value [11, 19] was 10, the “Plant response rating, Annual bluegras” value [11, 20] was 50 and the “Plant response rating, Kochia” value [12, 21] was 0. For the same compound, the “Plant response rating, Kochia” value ([12]; Rate 250 g/ha, 0 to 100 scale) was 50, the “Plant response rating, Kochia” value [12, 22] was 100 and the “Plant response rating, Deadnettle” value ([13]; Rate 125 g/ha, 0 to 100 scale) was 0. For the same compound, the “Plant response rating, Deadnettle” value [13, 19] was 30, the “Plant response rating, Deadnettle” value [13, 20] was 30 and the “Plant response rating, Wild mustard” value ([14]; Rate 125 g/ha, 0 to 100 scale) was 40. The “Plant response rating, Wild mustard” value [14, 19] was 50, the “Plant response rating, Wild mustard” value [14, 20] was 20 and the “Plant response rating, Spring Wheat” value ([15]; Rate 125 g/ha, 0 to 100 scale) was 30. For the same compound, the “Plant response rating, Spring Wheat” value [15, 19] was 20, the “Plant response rating, Spring Wheat” value [15, 20] was 10 and the “Plant response rating, Russian thistle” value ([16]; Rate 125 g/ha, 0 to 100 scale) was 0. The “Plant response rating, Russian thistle” value [16, 19] was 0, the “Plant response rating, Russian thistle” value [16, 20] was 0 and the “Plant response rating, Comnion poppy” value ([17]; Rate 125 g/ha, 0 to 100 scale) was 30. For the same compound, the “Plant response rating, Common poppy” value [17, 19] was 10, the “Plant response rating, Common poppy” value [17, 20] was 10 and the “Plant response rating, Galium” value ([18]; Rate 125 g/ha, 0 to 100 scale) was 50. For the same compound, the “Plant response rating, Galium” value [18, 19] was 30 and the “Plant response rating, Galium” value [18, 20] was 50.
